Data: PubChem BioAssay (NCI)
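Cultured in 96-well plates, cells were exposed to test compound for 48 hours across five concentrations. Here, GI50 denotes the concentration required for 50% inhibition of growth. TGI is the concentration that stops growth completely.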

How the values were obtained:
Assay in all cases: NCI tumour cell line growth inhibition, 48 h
[1] = tested on: SK-OV-3 ovarian
[2] = tested on: RPMI-8226 leukemia
[3] = tested on: OVCAR-5 ovarian
[4] = tested on: SR leukemia
[5] = tested on: PC-3 prostate
[6] = tested on: A498 renal
[7] = tested on: HS 578T breast
[8] = tested on: SK-MEL-5 melanoma
[9] = tested on: MDA-MB-435
[10] = tested on: MALME-3M melanoma
[11] = tested on: U251 CNS
[12] = tested on: HL-60(TB) leukemia
[13] = tested on: HCT-15 colon
[14] = tested on: M14 melanoma
[15] = tested on: SK-MEL-28 melanoma
[16] = tested on: RXF 393 renal
[17] = tested on: KM12 colon
[18] = tested on: K-562 leukemia
[19] = tested on: OVCAR-8 ovarian
[20] = tested on: 786-0 renal
[21] = tested on: HOP-62 NSCLC
[22] = tested on: NCI-H522 lung
[23] = tested on: SF-539 CNS
[24] = tested on: MCF7 breast
[25] = tested on: SNB-19 CNS
[26] = tested on: HCT-116 colon
[27] = tested on: MDA-MB-231 breast
[28] = tested on: OVCAR-4 ovarian
[29] = tested on: TK-10 renal
[30] = tested on: CAKI-1 renal
[31] = tested on: UO-31 renal
[32] = tested on: SF-295 CNS
[33] = tested on: NCI-H460 lung
[34] = tested on: SN12C renal
[35] = tested on: OVCAR-3 ovarian
[36] = tested on: UACC-257 melanoma
[37] = tested on: SK-MEL-2 melanoma
[38] = tested on: SF-268 CNS
[39] = tested on: NCI-H226 lung
[40] = tested on: NCI/ADR-RES ovarian
[41] = tested on: EKVX NSCLC
[42] = tested on: T-47D breast
[43] = tested on: UACC-62 melanoma
[44] = tested on: DU-145 prostate
[45] = tested on: NCI-H23 lung
[46] = tested on: SW-620 colon
[47] = tested on: MOLT-4 leukemia
[48] = tested on: LOX IMVI melanoma
[49] = tested on: IGROV1 ovarian
[50] = tested on: CCRF-CEM leukemia
[51] = tested on: A549 NSCLC
[52] = tested on: COLO 205 colon

Compound CCOC(=O)/C(C#N)=C\C=C(\Sc1nc2ccccc2s1)c1ccc(Cl)cc1 has a GI50 [1] of 39.6 µM, a TGI [1] of over 100 µM and a GI50 [2] of 2.47 µM. For the same compound, the TGI [2] was 14 µM, the GI50 [3] was over 100 µM and the TGI [3] was over 100 µM. For the same compound, the GI50 [4] was 4.91 µM, the TGI [4] was 46.9 µM and the GI50 [5] was 13.5 µM. It also gave a TGI [5] of 26.3 µM, a GI50 [6] of 27.7 µM and a TGI [6] of 72.5 µM. The GI50 [7] was 31.6 µM, the TGI [7] was 68 µM and the GI50 [8] was 15.1 µM. For the same compound, the TGI [8] was 31.9 µM, the GI50 [9] was 16.8 µM and the TGI [9] was 35.3 µM. It also gave a GI50 [10] of 19.4 µM, a TGI [10] of 37.9 µM and a GI50 [11] of 29 µM. For the same compound, the TGI [11] was over 100 µM, the GI50 [12] was 24.2 µM and the TGI [12] was over 100 µM. For the same compound, the GI50 [13] was 16.4 µM, the TGI [13] was 45.2 µM and the GI50 [14] was 26.4 µM. The TGI [14] was 54.3 µM, the GI50 [15] was 25.5 µM and the TGI [15] was 69.5 µM. The GI50 [16] was 18.3 µM, the TGI [16] was 37.6 µM and the GI50 [17] was 38 µM. It also gave a TGI [17] of over 100 µM, a GI50 [18] of 20.2 µM and a TGI [18] of over 100 µM. It also gave a GI50 [19] of 30.4 µM, a TGI [19] of 83.9 µM and a GI50 [20] of 19.3 µM. It also gave a TGI [20] of 36.3 µM, a GI50 [21] of 29.1 µM and a TGI [21] of 72.2 µM. For the same compound, the GI50 [22] was 18.5 µM, the TGI [22] was 41.4 µM and the GI50 [23] was 22.1 µM. For the same compound, the TGI [23] was 40.8 µM, the GI50 [24] was 29.1 µM and the TGI [24] was 84.5 µM. The GI50 [25] was 66.6 µM, the TGI [25] was over 100 µM and the GI50 [26] was 17.1 µM. For the same compound, the TGI [26] was 33.1 µM, the GI50 [27] was 50.9 µM and the TGI [27] was over 100 µM. For the same compound, the GI50 [28] was 22 µM, the TGI [28] was 57.8 µM and the GI50 [29] was 20 µM. It also gave a TGI [29] of 37.3 µM, a GI50 [30] of 19.5 µM and a TGI [30] of 41.4 µM. The GI50 [31] was 17 µM, the TGI [31] was 35.4 µM and the GI50 [32] was 37.9 µM. It also gave a TGI [32] of over 100 µM, a GI50 [33] of 80.8 µM and a TGI [33] of over 100 µM. It also gave a GI50 [34] of 19.9 µM, a TGI [34] of 45.2 µM and a GI50 [35] of 14.4 µM. It also gave a TGI [35] of 27.5 µM, a GI50 [36] of 13.7 µM and a TGI [36] of 46.8 µM. It also gave a GI50 [37] of 14.8 µM, a TGI [37] of 33.5 µM and a GI50 [38] of 31.8 µM. It also gave a TGI [38] of over 100 µM, a GI50 [39] of 24 µM and a TGI [39] of 46.7 µM. For the same compound, the GI50 [40] was 27.5 µM, the TGI [40] was 61.2 µM and the GI50 [41] was 14.8 µM. For the same compound, the TGI [41] was 31.6 µM, the GI50 [42] was 20.3 µM and the TGI [42] was 45.1 µM. The GI50 [43] was 29.8 µM, the TGI [43] was 81.5 µM and the GI50 [44] was 18.7 µM. For the same compound, the TGI [44] was 35.4 µM, the GI50 [45] was 20.9 µM and the TGI [45] was 38.9 µM. It also gave a GI50 [46] of 14.3 µM, a TGI [46] of 39.2 µM and a GI50 [47] of 3.88 µM. The TGI [47] was over 100 µM, the GI50 [48] was 10.9 µM and the TGI [48] was over 100 µM. The GI50 [49] was 18.8 µM, the TGI [49] was 37.6 µM and the GI50 [50] was 2.28 µM. The TGI [50] was 9.5 µM, the GI50 [51] was over 100 µM and the TGI [51] was over 100 µM. It also gave a GI50 [52] of 20.1 µM and a TGI [52] of 42.8 µM.
